Test results reported in patent US20220204449A1, “BIASED AGONISTS OF OPIOID RECEPTORS” (ILDONG PHARMACEUTICAL CO., LTD., priority 2020, published 2022).
Entries after “also recorded” stand apart in the source; their conditions may differ.

Columns and labels:
Type in all cases: cell-based
[1] = target: T1, human μ-opioid receptor, OPRM (Homo sapiens, UniProt P35372); assay: Dominant assay: cAMP assay with/without irreversible antagonist β-FNA, OPRM cell line; conditions: for maximal response on decreasing receptor population (dominant tendency), in words: OPRM cell lines, β-FNA
T1 construct: host or cells: HEK-293 overexpressing β-arrestin2 fused to a β-galactosidase fragment
From the text: (§1) To confirm the agonist's efficacy in a nature-like system, we need inactivation of target receptors on the cell membrane. Most cell lines have an abundant target receptor population (also known as spare receptors). Therefore, agonists have more opportunity to constitute agonist-receptor conformation. In this environment, not only full agonists but also partial agonists can reach maximal response.
(§2) If the partial agonist is selected as a full agonist, translational in vivo research will likely fail.
(§3) Non-competitive, irreversible antagonists can be applicable to judge the pharmacological character of agonists because they permanently decrease the receptor population in the cell line system. β-FNA or β-CNA is used as a non-competitive and irreversible antagonist for OPRM, OPRD. Before cAMP assay, cells were incubated with β-FNA or β-CNA for 40 minutes. Afterwards, the procedure is the same.
(§4) If a partial agonist compound acts as a full agonist due to receptor population (pseudo full agonist), it cannot sustain maximal response with reduced receptor population. However, a full agonist compound maintains their maximal response even though increased EC50.

[2] = target: T1, human μ-opioid receptor, OPRM; assay: PathHunter β-arrestin 2 assay, OPRM cell line
From the text: (§5) Human embryonic kidney 293 (HEK-293) cells which transfected overexpress (3-arrestin2 fused β-galactosidase fragment were purchased from DiscoverX. Human OPRM1 gene (NM 000914.3, encoding human μ-opioid receptor, OPRM) and Human OPRD1 gene (NM 000911.3, encoding human δ-opioid receptor, OPRD) were fused to a pCMV-ProLink plasmid which contains complementary β-galactosidase fragment purchased from DiscoverX. To generate human OPRM1 or OPRD1 expression cell lines, HEK-293 cells were transfected to prepared plasmid and grown in DMEM medium with 10% fetal bovine serum, 150 μg/mL Hygromycin B and 500 μg/mL G418.
(§6) The PathHunter enzyme assay was performed to measure the agonist's capability of β-arrestin 2 pathway activation. When agonists bind to G protein-coupled receptor (GPCR), the receptor pathway is sequentially activated from G protein to β-arrestin 2 recruitment.
(§7) Because […] β-arrestin 2 and C-terminal of GPCR have a fragment of β-galactosidase, recruitment of β-arrestin 2 to GPCR forms the whole β-galactosidase. The functionality of the whole β-galactosidase is detected by chemiluminescence (FlexStation3, Molecular Devices).
(§8) cAMP and β-arrestin assays described above were conducted to decide whether candidate compounds were μ- and/or δ-opioid receptor bias agonists for the G-protein pathway. All assays produced the concentration-response curve, and the curve data was validated by a quality control factor named Z′ factor. Because half-maximal effect concentration (EC50) depends on the population of receptors, the maximal asymptote of the concentration curve was used. Efficacy data of candidates was normalized by comparison to reference agonists DAMGO and SNC80 for OPRM and OPRD.

[3] = target: T2, human δ-opioid receptor, OPRD (Homo sapiens, UniProt P41143); assay: PathHunter β-arrestin 2 assay, OPRD cell line
T2 construct: host or cells: HEK-293 overexpressing β-arrestin2 fused to a β-galactosidase fragment
From the text: as §5, §6, §7, §8

[4] = target: T2, human δ-opioid receptor, OPRD; assay: cAMP accumulation assay (Gi pathway), OPRD cell line; conditions: for OPRD Gi Hill slope: cAMP concentration-response curve; for Emax: normalized to reference agonist SNC80
From the text: as §5
(§9) Cyclic Adenosine Monophosphate (cAMP) Accumulation
(§10) The agonist's efficacy to the G protein pathway was determined by changes in the cAMP level using the Cisbio cAMP detection kit. The cells used in cAMP assays are the same cell line as used in the β-arrestin 2 assays. The human opioid receptor activates the Gαi so intracellular cAMP accumulation is inhibited. Cisbio detection kit uses labeled cAMP and antibody. This system proceeds to compete with endogenous cAMP. If Gαi is activated, intracellular cAMP decreases. This assures that labeled-cAMP binds more with the antibody so that time-resolved fluorescence […].
as §8
(§11) The hill slope describes the steepness of the curve. […] We set the appropriate interval of hill slope as 0.8<n<1.5 which maintains the sigmoidal curve shape.

[5] = target: T1, human μ-opioid receptor, OPRM; assay: cAMP accumulation assay (Gi pathway), OPRM cell line; conditions: for EC50 / OPRM Gi Hill slope / Emax: Table 1; for EC50 / Emax: cAMP; for OPRM Gi Hill slope: cAMP concentration-response curve; for Emax: normalized to reference agonist DAMGO
From the text: as §5, §9, §10, §8, §11

[6] = target: T2, human δ-opioid receptor, OPRD; assay: Dominant assay: cAMP assay with/without irreversible antagonist β-CNA, OPRD cell line; conditions: for completeness of concentration-response curve, in words: OPRD system; for maximal response on decreasing receptor population (dominant tendency), in words: OPRD cell lines, β-CNA
From the text: as §1, §2, §3, §4

[7] = addition of β-FNA, Example 3, Tables 5-7, read-out: OPRM Gi β-FNA (+) EC50
[8] = addition of β-FNA, Example 3, Tables 5-7, read-out: OPRM Gi β-FNA (+) Emax (%)
[9] = addition of β-FNA, repeated dominant assay, Example 4, Tables 8-10, read-out: OPRM Gi β-FNA (+) EC50
[10] = addition of β-FNA, repeated dominant assay, Example 4, Tables 8-10, read-out: OPRM Gi β-FNA (+) Emax (%)
[11] = no addition of β-FNA, Example 3, Tables 5-7, read-out: OPRM Gi β-FNA (−) EC50
[12] = no addition of β-FNA, Example 3, Tables 5-7, read-out: OPRM Gi β-FNA (−) Emax (%)
[13] = no addition of β-FNA, repeated dominant assay, Example 4, Tables 8-10, read-out: OPRM Gi β-FNA (−) EC50
[14] = no addition of β-FNA, repeated dominant assay, Example 4, Tables 8-10, read-out: OPRM Gi β-FNA (−) Emax (%)
[15] = Example 3, Tables 5-7, read-out: OPRM β-ARR2 Emax (%)
[16] = Table 1, normalized to reference agonist DAMGO, read-out: OPRM arrestin Emax, %
[17] = Example 3, Tables 5-7, read-out: OPRD β-ARR2 Emax (%)
[18] = Table 1, normalized to reference agonist SNC80, read-out: OPRD arrestin Emax, %
[19] = Table 1, cAMP, read-out: OPRD Gi EC50
[20] = addition of β-CNA, Example 3, Tables 5-7, read-out: OPRD Gi β-CNA (+) EC50
[21] = addition of β-CNA, Example 3, Tables 5-7, read-out: OPRD Gi β-CNA (+) Emax (%)
[22] = addition of β-CNA, repeated dominant assay, Example 4, Tables 8-10, read-out: OPRD Gi β-CNA (+) EC50
[23] = addition of β-CNA, repeated dominant assay, Example 4, Tables 8-10, read-out: OPRD Gi β-CNA (+) Emax (%)
[24] = no addition of β-CNA, Example 3, Tables 5-7, read-out: OPRD Gi β-CNA (−) EC50
[25] = no addition of β-CNA, Example 3, Tables 5-7, read-out: OPRD Gi β-CNA (−) Emax (%)
[26] = no addition of β-CNA, repeated dominant assay, Example 4, Tables 8-10, read-out: OPRD Gi β-CNA (−) EC50
[27] = no addition of β-CNA, repeated dominant assay, Example 4, Tables 8-10, read-out: OPRD Gi β-CNA (−) Emax (%)

T1 sequence (P35372 whole entry, the tested form may be a part): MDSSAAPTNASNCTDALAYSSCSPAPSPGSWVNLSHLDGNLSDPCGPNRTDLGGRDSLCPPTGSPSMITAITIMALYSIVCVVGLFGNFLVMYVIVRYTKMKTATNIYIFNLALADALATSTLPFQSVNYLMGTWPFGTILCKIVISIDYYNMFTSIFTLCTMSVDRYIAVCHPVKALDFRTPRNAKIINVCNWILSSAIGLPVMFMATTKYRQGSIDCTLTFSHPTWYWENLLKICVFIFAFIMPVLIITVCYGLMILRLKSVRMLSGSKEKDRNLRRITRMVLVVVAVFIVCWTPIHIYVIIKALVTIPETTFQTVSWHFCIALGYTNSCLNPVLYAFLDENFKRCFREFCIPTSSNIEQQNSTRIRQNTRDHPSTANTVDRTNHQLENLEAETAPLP
T2 sequence (P41143 whole entry, the tested form may be a part): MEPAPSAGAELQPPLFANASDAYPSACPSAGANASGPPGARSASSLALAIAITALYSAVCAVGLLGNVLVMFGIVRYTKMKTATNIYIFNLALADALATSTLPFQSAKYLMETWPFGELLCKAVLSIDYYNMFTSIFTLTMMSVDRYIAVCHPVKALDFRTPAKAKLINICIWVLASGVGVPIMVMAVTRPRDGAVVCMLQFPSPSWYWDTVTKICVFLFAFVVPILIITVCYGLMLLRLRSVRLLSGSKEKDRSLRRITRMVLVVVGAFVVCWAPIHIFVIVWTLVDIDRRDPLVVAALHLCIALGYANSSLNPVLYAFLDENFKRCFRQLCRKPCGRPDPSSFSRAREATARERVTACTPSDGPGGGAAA

CN(C)C(CNC(=O)Cc1ccc2c(c1)OCCO2)c1ccccc1 (racemic) [Compound 1, 2-(2,3-dihydro-1,4-benzodioxin-6-yl)-N-[2-(dimethylamino)-2-phenylethyl]acetamide]
maximal response on decreasing receptor population (dominant tendency), in words [1]: showed a similar pattern as compared to DAMGO
EC50 [1, 7]: 5860 nM
Emax [1, 8]: 88.2%
EC50 [1, 9]: 3880 nM
Emax [1, 10]: 67.5%
EC50 [1, 11]: 2090 nM
Emax [1, 12]: 101%
EC50 [1, 13]: 1160 nM
Emax [1, 14]: 100%
Emax [2, 15]: 12.9%
Emax [2, 16]: 12.9%
Emax [3, 17]: 7.37%
Emax [3, 18]: 7.37%
OPRD Gi Hill slope ([4]; Table 1): 1.39
Emax ([4]; Table 1, cAMP): 88.9%
EC50 [4, 19]: 4160 nM
EC50 [5]: 730 nM
OPRM Gi Hill slope [5]: 0.99
Emax [5]: 102%
completeness of concentration-response curve, in words [6]: curve was cut due to the X-axis limitation
EC50 [6, 20]: 9 nM
Emax [6, 21]: 108%
EC50 [6, 22]: 7870 nM
Emax [6, 23]: 46.6%
EC50 [6, 24]: 4.91 nM
Emax [6, 25]: 113%
EC50 [6, 26]: 8770 nM
Emax [6, 27]: 104%

CN1CCc2cc(C(CNC(=O)Nc3ccc(F)cc3)N(C)C)ccc21 (racemic) [Compound 2, 3-[2-(dimethylamino)-2-(1-methyl-2,3-dihydro-1H-indol-5-yl)ethyl]-1-(4-fluorophenyl)urea]
maximal response on decreasing receptor population (dominant tendency), in words [1]: showed a similar pattern as compared to DAMGO; also recorded: resistant to decreasing spare receptors; also recorded: resistant to decreasing spare receptor-induced tendency
EC50 [1, 7]: 1170 nM
Emax [1, 8]: 80.1%
EC50 [1, 9]: 4190 nM
Emax [1, 10]: 77.4%
EC50 [1, 11]: 682 nM
Emax [1, 12]: 98.6%
EC50 [1, 13]: 1700 nM
Emax [1, 14]: 103%
Emax [2, 15]: 15.3%
Emax [2, 16]: 15.3%
Emax [3, 17]: 4.66%
Emax [3, 18]: 4.66%
OPRD Gi Hill slope ([4]; Table 1): 1.44
Emax ([4]; Table 1, cAMP): 92.4%
EC50 [4, 19]: 1050 nM
EC50 [5]: 1880 nM
OPRM Gi Hill slope [5]: 0.94
Emax [5]: 109%
maximal response on decreasing receptor population (dominant tendency), in words [6]: resistant to decreasing spare receptors; also recorded: resistant to decreasing spare receptor-induced tendency
completeness of concentration-response curve, in words [6]: produced a full concentration-response curve
EC50 [6, 20]: 2380 nM
Emax [6, 21]: 78.5%
EC50 [6, 22]: 6220 nM
Emax [6, 23]: 70.2%
EC50 [6, 24]: 4.98 nM
Emax [6, 25]: 98.9%
EC50 [6, 26]: 1650 nM
Emax [6, 27]: 100%

Cc1ccccc1NC(=O)NCC(c1ccc2c(c1)CCO2)N(C)C (racemic) [Compound 3, 3-[2-(2,3-dihydro-1-benzofuran-5-yl)-2-(dimethylamino)ethyl]-1-(2-methylphenyl)urea]
maximal response on decreasing receptor population (dominant tendency), in words [1]: showed a similar pattern as compared to DAMGO
EC50 [1, 7]: 1580 nM
Emax [1, 8]: 91.3%
EC50 [1, 9]: 22.7 nM
Emax [1, 10]: 75.5%
EC50 [1, 11]: 656 nM
Emax [1, 12]: 97.9%
EC50 [1, 13]: 36 nM
Emax [1, 14]: 102%
Emax [2, 15]: 12.2%
Emax [2, 16]: 12.2%
Emax [3, 17]: 1.99%
Emax [3, 18]: 1.99%
OPRD Gi Hill slope ([4]; Table 1): 1.16
Emax ([4]; Table 1, cAMP): 94.6%
EC50 [4, 19]: 8370 nM
EC50 [5]: 1290 nM
OPRM Gi Hill slope [5]: 1.48
Emax [5]: 112%
completeness of concentration-response curve, in words [6]: curve was cut due to the X-axis limitation
EC50 [6, 20]: 10600 nM
Emax [6, 21]: 50.9%
EC50 [6, 22]: 4450 nM
Emax [6, 23]: 48.2%
EC50 [6, 24]: 4350 nM
Emax [6, 25]: 106%
EC50 [6, 26]: 3630 nM
Emax [6, 27]: 100%

C[C@@H](Cc1ccsc1)NC(=O)NC[C@H](Cc1ccc(O)cc1)N(C)C [PZM21, reference compound]
OPRD β-ARR2 Emax (%) ([3]; Example 3, Tables 5-7): 3.41%
OPRD arrestin Emax, % ([3]; Table 1, normalized to reference agonist SNC80): 3.41%
Gi pathway agonism, in words ([4]; OPRD): OPRM, OPRD dual biased agonist
OPRD Gi Hill slope ([4]; Table 1): 0.83
EC50 [4, 19]: 230 nM
maximal response on decreasing receptor population (dominant tendency), in words [6]: more susceptible to decreasing receptor populations than SNC80; also recorded: less resistance to decreasing spare receptors than SNC80
completeness of concentration-response curve, in words [6]: produced a full concentration-response curve
OPRD Gi β-CNA (+) Emax (%) ([6]; addition of β-CNA, Example 3, Tables 5-7): 58.77%
EC50 [6, 20]: 288 nM
OPRD Gi β-CNA (−) Emax (%) ([6]; no addition of β-CNA, Example 3, Tables 5-7): 95.97%
EC50 [6, 24]: 119 nM

COc1ccsc1CNCC[C@@]1(c2ccccn2)CCOC2(CCCC2)C1 [TRV130, reference compound]
maximal response on decreasing receptor population (dominant tendency), in words [1]: susceptible to decreasing receptor populations than DAMGO; also recorded: attenuates the efficacy; also recorded: more susceptible to decreasing receptor populations than DAMGO
Emax [1, 8]: 56.3%
Emax [1, 12]: 89.5%
Emax [2, 15]: 2.4%
Emax [2, 16]: 2.41%
Emax [3, 17]: 9.6%
Emax [3, 18]: 9.6%
EC50 [4]: 2040 nM
OPRD Gi Hill slope ([4]; Table 1): 1.28
Emax ([4]; Table 1, cAMP): 63.4%
Gi pathway agonism, in words ([5]; OPRM): full agonism
OPRM Gi Hill slope [5]: 0.35
Emax [5]: 101%
EC50 ([6]; OPRD Gi β-CNA (+) EC50 (nM), addition of β-CNA, Example 3, Tables 5-7): 1200 nM
EC50 ([6]; OPRD Gi β-CNA (−) EC50 (nM), no addition of β-CNA, Example 3, Tables 5-7): 1.49 nM
maximal response on decreasing receptor population (dominant tendency), in words [6]: more susceptible to decreasing receptor populations than SNC80; also recorded: less resistance to decreasing spare receptors than SNC80
completeness of concentration-response curve, in words [6]: produced a full concentration-response curve
Emax [6, 21]: 67.2%
Emax [6, 25]: 73.9%
